Experimental data: ChEMBL document CHEMBL5260845, “Flavone-based arylamides as potential anticancers: Design, synthesis and in vitro cell-based/cell-free evaluations” (2020)
Active and inactive are the calls of the source. The rule behind the calls is not given here.

Assays:
M14 = assay: Antiproliferative activity against human M14 cells assessed as cell growth inhibition at 10 uM by SRB assay; format: functional, cell-based
LOX IMVI = assay: Antiproliferative activity against human LOX IMVI cells assessed as cell growth inhibition at 10 uM by SRB assay; format: functional, cell-based
CCRF-CEM [1] = assay: Antiproliferative activity against human CCRF-CEM cells assessed as cell growth inhibition at 10 uM by SRB assay; format: functional, cell-based
HL-60 [2] = assay: Antiproliferative activity against human HL-60 cells assessed as cell growth inhibition at 10 uM by SRB assay; format: functional, cell-based
K562 [3] = assay: Antiproliferative activity against human K562 cells assessed as cell growth inhibition at 10 uM by SRB assay; format: functional, cell-based
MOLT-4 [4] = assay: Antiproliferative activity against human MOLT-4 cells assessed as cell growth inhibition at 10 uM by SRB assay; format: functional, cell-based
RPMI-8226 [5] = assay: Antiproliferative activity against human RPMI-8226 cells assessed as cell growth inhibition at 10 uM by SRB assay; format: functional, cell-based
SR [6] = assay: Antiproliferative activity against human SR cells assessed as cell growth inhibition at 10 uM by SRB assay; format: functional, cell-based
EKVX = assay: Antiproliferative activity against human EKVX cells assessed as cell growth inhibition at 10 uM by SRB assay; format: functional
HOP-92 = assay: Antiproliferative activity against human HOP-92 cells assessed as cell growth inhibition at 10 uM by SRB assay; format: functional, cell-based
NCI-H226 = assay: Antiproliferative activity against human NCI-H226 cells assessed as cell growth inhibition at 10 uM by SRB assay; format: functional
NCI-H23 = assay: Antiproliferative activity against human NCI-H23 cells assessed as cell growth inhibition at 10 uM by SRB assay; format: functional
NCI-H522 = assay: Antiproliferative activity against human NCI-H522 cells assessed as cell growth inhibition at 10 uM by SRB assay; format: functional, cell-based
HCT-116 = assay: Antiproliferative activity against human HCT-116 cells assessed as cell growth inhibition at 10 uM by SRB assay relative to control; format: functional
SF-295 [7] = assay: Antiproliferative activity against human SF-295 cells assessed as cell growth inhibition at 10 uM by SRB assay; format: functional, cell-based
Malme-3M [8] = assay: Antiproliferative activity against human Malme-3M cells assessed as cell growth inhibition at 10 uM by SRB assay; format: functional, cell-based
SK-MEL-2 = assay: Antiproliferative activity against human SK-MEL-2 cells assessed as cell growth inhibition at 10 uM by SRB assay relative to control; format: functional; conditions: Homo sapiens, SK-MEL-2, dose 10 µM
ACHN = assay: Antiproliferative activity against human ACHN cells assessed as inhibition of cell growth at 10 uM by SRB assay relative to control; format: functional; conditions: pooled result: one value given for 2 cell lines, strains, targets or settings
RXF 393 = assay: Antiproliferative activity against human RXF 393 cells assessed as inhibition of cell growth at 10 uM by SRB assay relative to control; format: functional
CAKI-1 = assay: Antiproliferative activity against human CAKI-1 cells assessed as inhibition of cell growth at 10 uM by SRB assay relative to control; format: functional
T47D = assay: Antiproliferative activity against estrogen receptor positive human T47D cells assessed as inhibition of cell growth at 10 uM by SRB assay relative to control; format: functional
Hs-578T = assay: Antiproliferative activity against human Hs-578T cells assessed as inhibition of cell growth at 10 uM by SRB assay; format: functional, cell-based
[9] = Antiproliferative activity against human hematologic cancer cells assessed as cell growth inhibition at 10 uM by SRB assay relative to control; format: functional
Renal cancer cell line = assay: Antiproliferative activity against human renal cancer cells assessed as cell growth inhibition at 10 uM by SRB assay relative to control; format: functional
[10] = Antiproliferative activity against human colon cancer cells assessed as cell growth inhibition at 10 uM by SRB assay relative to control; format: functional; conditions: Colon carcinoma cell
Prostatic carcinoma cell = assay: Antiproliferative activity against human prostatic carcinoma cells assessed as cell growth inhibition at 10 uM by SRB assay relative to control; format: functional
OVCAR-4 = assay: Antiproliferative activity against human OVCAR-4 cells assessed as cell growth inhibition at 10 uM by SRB assay relative to control; format: functional
SK-OV-3 = assay: Antiproliferative activity against human SK-OV-3 cells assessed as inhibition of cell growth at 10 uM by SRB assay relative to control; format: functional
CCRF-CEM [11] = assay: Antiproliferative activity against human CCRF-CEM cells assessed as cell growth inhibition at 10 uM by SRB assay relative to control; format: functional
HL-60 [12] = assay: Antiproliferative activity against human HL-60 cells assessed as cell growth inhibition at 10 uM by SRB assay relative to control; format: functional
K562 [13] = assay: Antiproliferative activity against human K562 cells assessed as cell growth inhibition at 10 uM by SRB assay relative to control; format: functional
MOLT-4 [14] = assay: Antiproliferative activity against human MOLT-4 cells assessed as cell growth inhibition at 10 uM by SRB assay relative to control; format: functional
RPMI-8226 [15] = assay: Antiproliferative activity against human RPMI-8226 cells assessed as cell growth inhibition at 10 uM by SRB assay relative to control; format: functional
SR [16] = assay: Antiproliferative activity against human SR cells assessed as cell growth inhibition at 10 uM by SRB assay relative to control; format: functional
UO-31 = assay: Antiproliferative activity against human UO-31 cells assessed as inhibition of cell growth at 10 uM by SRB assay relative to control; format: functional
SF-295 [17] = assay: Antiproliferative activity against human SF-295 cells assessed as cell growth inhibition at 10 uM by SRB assay relative to control; format: functional
SNB-75 [18] = assay: Antiproliferative activity against human SNB-75 cells assessed as cell growth inhibition at 10 uM by SRB assay relative to control; format: functional
SNB-19 = assay: Antiproliferative activity against human SNB-19 cells assessed as cell growth inhibition at 10 uM by SRB assay; format: functional, cell-based
SF-539 = assay: Antiproliferative activity against human SF-539 cells assessed as cell growth inhibition at 10 uM by SRB assay; format: functional, cell-based
U-251 = assay: Antiproliferative activity against human U-251 cells assessed as cell growth inhibition at 10 uM by SRB assay; format: functional, cell-based
SF-268 = assay: Antiproliferative activity against human SF-268 cells assessed as cell growth inhibition at 10 uM by SRB assay; format: functional, cell-based
SNB-75 [19] = assay: Antiproliferative activity against human SNB-75 cells assessed as cell growth inhibition at 10 uM by SRB assay; format: functional, cell-based
Malme-3M [20] = assay: Antiproliferative activity against human Malme-3M cells assessed as cell growth inhibition at 10 uM by SRB assay relative to control; format: functional
UACC-62 = assay: Antiproliferative activity against human UACC-62 cells assessed as cell growth inhibition at 10 uM by SRB assay relative to control; format: functional
OVCAR-8 = assay: Antiproliferative activity against human OVCAR-8 cells assessed as cell growth inhibition at 10 uM by SRB assay relative to control; format: functional
IGROV-1 = assay: Antiproliferative activity against human IGROV-1 cells assessed as cell growth inhibition at 10 uM by SRB assay relative to control; format: functional
BT-549 = assay: Antiproliferative activity against triple negative human BT-549 cells assessed as inhibition of cell growth at 10 uM by SRB assay relative to control; format: functional

SMILES	inhibition (CCRF-CEM [1])	inhibition (HL-60 [2])	inhibition (K562 [3])	inhibition (MOLT-4 [4])	inhibition (RPMI-8226 [5])	inhibition (SR [6])	inhibition at 10 µM (EKVX) [%]	inhibition (HOP-92)	inhibition at 10 µM (NCI-H226) [%]	inhibition at 10 µM (NCI-H23) [%]	inhibition (NCI-H522)	inhibition (SF-295 [7])	inhibition at 10 µM (SK-MEL-2) [%]	inhibition (Hs-578T)	inhibition at 10 µM (CCRF-CEM [11]) [%]	inhibition at 10 µM (HL-60 [12]) [%]	inhibition at 10 µM (K562 [13]) [%]	inhibition at 10 µM (MOLT-4 [14]) [%]	inhibition at 10 µM (RPMI-8226 [15]) [%]	inhibition (UO-31)	other results
COc1cc2oc(-c3cccc(NC(=O)c4ccc(Cl)cc4)c3)cc(=O)c2c(OC)c1OC	Active	Active	Active	Active	Active	Active	< 50	Active	< 50	< 50	Active	Active	≤ 46	Active							inhibition (M14): Active; inhibition (LOX IMVI): Active; inhibition at 10 µM (HCT-116): 88%; inhibition (Malme-3M [8]): Active; inhibition at 10 µM (ACHN): 51.1%; inhibition at 10 µM (RXF 393): 51.1%; inhibition at 10 µM (CAKI-1): 51.1%; inhibition at 10 µM (T47D): 62.2%; inhibition at 10 µM [9]: > 50%; inhibition at 10 µM (Renal cancer cell line): > 50%; inhibition at 10 µM [10]: > 50%; inhibition at 10 µM (Prostatic carcinoma cell): > 50%
CC(=O)O[C@H]1C(=O)[C@@]2(C)[C@H]([C@H](OC(=O)c3ccccc3)[C@]3(O)C[C@H](OC(=O)[C@H](O)[C@@H](NC(=O)c4ccccc4)c4ccccc4)C(C)=C1C3(C)C)[C@]1(OC(C)=O)CO[C@@H]1C[C@@H]2O [PACLITAXEL]																					inhibition at 10 µM (OVCAR-4): 113%; inhibition at 10 µM (SK-OV-3): 57.1%
COc1cc2oc(-c3ccc(NC(=O)c4ccc(F)cc4)cc3)cc(=O)c2c(OC)c1OC							< 50	Active	< 50	< 50	Active	Active		Active	≤ 42.6	≤ 42.6	≤ 42.6	≤ 42.6	≤ 42.6	Active	inhibition at 10 µM (SR [16]): ≤ 42.6%
Cn1nnc2c(C(N)=O)ncn2c1=O [TEMOZOLOMIDE]																					inhibition at 10 µM (SF-295 [17]): 29.8%; inhibition at 10 µM (SNB-75 [18]): 40.8%
COc1cc2oc(-c3ccc(NC(=O)c4cccc(Br)c4)cc3)cc(=O)c2c(O)c1OC												inactive							82.6		inhibition (SNB-19): inactive; inhibition (SF-539): inactive; inhibition (U-251): inactive; inhibition (SF-268): inactive; inhibition (SNB-75 [19]): inactive
COc1cc2oc(-c3cccc(NC(=O)c4ccc(F)cc4)c3)cc(=O)c2c(OC)c1OC	Active	Active	Active	Active	Active	Active	< 50	Active	< 50	< 50	Active	Active	≤ 46	Active						Active	inhibition at 10 µM (T47D): 51.3%
COc1cc2oc(-c3ccc(NC(=O)c4ccc(C(F)(F)F)cc4)cc3)cc(=O)c2c(OC)c1OC							< 50	Active	< 50	< 50	Active	Active		Active	≤ 42.6	≤ 42.6	≤ 42.6	≤ 42.6	≤ 42.6	Active	inhibition at 10 µM (SR [16]): ≤ 42.6%
COc1cc2oc(-c3ccc(NC(=O)c4ccc(Cl)cc4)cc3)cc(=O)c2c(OC)c1OC							< 50	Active	< 50	< 50	Active	Active		Active	≤ 42.6	≤ 42.6	≤ 42.6	≤ 42.6	≤ 42.6	Active	inhibition at 10 µM (SR [16]): ≤ 42.6%
COc1cc2oc(-c3cccc(NC(=O)c4ccc([N+](=O)[O-])cc4)c3)cc(=O)c2c(OC)c1OC	Active	Active	Active	Active	Active	Active	< 50	Active	< 50	< 50	Active	Active	≤ 46	Active						Active	inhibition at 10 µM (Malme-3M [20]): 70.2%; inhibition at 10 µM (UACC-62): 52.1%; inhibition at 10 µM (OVCAR-4): 57.3%; inhibition at 10 µM (OVCAR-8): 57.3%; inhibition at 10 µM (IGROV-1): 57.3%; inhibition at 10 µM (BT-549): 77%
COc1cc2oc(-c3ccc(NC(=O)c4ccc(C)cc4)cc3)cc(=O)c2c(OC)c1OC							< 50	Active	< 50	< 50	Active	Active	≤ 46	Active	≤ 42.6	≤ 42.6	≤ 42.6	≤ 42.6	≤ 42.6	Active	inhibition at 10 µM (SR [16]): ≤ 42.6%
COc1cc2oc(-c3cccc(NC(=O)c4cccc(Br)c4)c3)cc(=O)c2c(OC)c1OC	Active	Active	Active	Active	Active	Active	< 50	Active	< 50	< 50	Active	Active	≤ 46	Active						Active	inhibition at 10 µM (T47D): 72.3%; inhibition at 10 µM [9]: > 50%; inhibition at 10 µM [10]: > 50%; inhibition at 10 µM (Prostatic carcinoma cell): > 50%
COc1cc2oc(-c3cccc(NC(=O)c4cccc(Br)c4)c3)cc(=O)c2c(O)c1OC												inactive							82.6		inhibition (SNB-19): inactive; inhibition (SF-539): inactive; inhibition (U-251): inactive; inhibition (SF-268): inactive; inhibition (SNB-75 [19]): inactive
